{
  "source": "ChEMBL document CHEMBL3885861",
  "about": "“Open TG-GATES”",
  "organism": "Rattus norvegicus",
  "experiment": "Open TG-GATES - Regimen: Daily Repeat",
  "assay_type": "toxicity, organism-based, Sprague-Dawley",
  "set-up": "regimen Daily Repeat, gender Male, age 6 weeks",
  "conditions": "in vivo, po, 100 mg/kg, […], route gavage, dose level High; for KIDNEY_L / KIDNEY_R / KIDNEY_TOTAL: tissue Kidney; for LIVER: tissue Liver; for ALP / AST / BUN / CRE / Ca / Cl / DBIL / GLC / IP / LDH / Na / PL / RALB / TBIL / TC / TG / TP / gamma-GTP: tissue Plasma",
  "data": [
    {"smiles": "CC(=O)N1CCN(c2ccc(OCC3COC(Cn4ccnc4)(c4ccc(Cl)cc4Cl)O3)cc2)CC1", "note": "(stereo not drawn) [KETOCONAZOLE]", "values": [
      {"measurement": "Hb", "setting": "tissue Blood, time 28 day", "value": 14.5, "unit": "g/dL"},
      {"measurement": "Ht", "setting": "tissue Blood, time 28 day", "value": 42.3, "unit": "%"},
      {"measurement": "Lym", "setting": "tissue Blood, time 28 day", "value": 72, "unit": "%"},
      {"measurement": "MCH", "setting": "tissue Blood, time 28 day", "value": 19.1, "unit": "pg"},
      {"measurement": "MCHC", "setting": "tissue Blood, time 28 day", "value": 34.2, "unit": "%"},
      {"measurement": "MCV", "setting": "tissue Blood, time 28 day", "value": 55.8, "unit": "fL"},
      {"measurement": "Mono", "setting": "tissue Blood, time 28 day", "value": 1.8, "unit": "%"},
      {"measurement": "Neu", "setting": "tissue Blood, time 28 day", "value": 24, "unit": "%"},
      {"measurement": "PT", "setting": "tissue Blood, time 28 day", "value": 17.1, "unit": "s"},
      {"measurement": "Plat", "setting": "tissue Blood, time 28 day", "value": 109.8, "unit": "x10_4/uL"},
      {"measurement": "RBC", "setting": "tissue Blood, time 28 day", "value": 758.8, "unit": "x10_4/ul"},
      {"measurement": "Ret", "setting": "tissue Blood, time 28 day", "value": 3, "unit": "%"},
      {"measurement": "WBC", "setting": "tissue Blood, time 28 day", "value": 86.3, "unit": "x10_2/uL"},
      {"measurement": "KIDNEY_L", "setting": "time 7 day", "value": 1.2, "unit": "g"},
      {"measurement": "KIDNEY_R", "setting": "time 7 day", "value": 1.2, "unit": "g"},
      {"measurement": "KIDNEY_TOTAL", "setting": "time 7 day", "value": 2.4, "unit": "g"},
      {"measurement": "KIDNEY_L", "setting": "time 14 day", "value": 1.3, "unit": "g"},
      {"measurement": "KIDNEY_R", "setting": "time 14 day", "value": 1.3, "unit": "g"},
      {"measurement": "KIDNEY_TOTAL", "setting": "time 14 day", "value": 2.6, "unit": "g"},
      {"measurement": "KIDNEY_L", "setting": "time 28 day", "value": 1.4, "unit": "g"},
      {"measurement": "KIDNEY_R", "setting": "time 28 day", "value": 1.4, "unit": "g"},
      {"measurement": "KIDNEY_TOTAL", "setting": "time 28 day", "value": 2.8, "unit": "g"},
      {"measurement": "LIVER", "setting": "time 14 day", "value": 15, "unit": "g"},
      {"measurement": "LIVER", "setting": "time 28 day", "value": 16.1, "unit": "g"},
      {"measurement": "ALP", "setting": "time 7 day", "value": 1138, "unit": "IU/L"},
      {"measurement": "AST", "setting": "time 7 day", "value": 64.8, "unit": "IU/L"},
      {"measurement": "BUN", "setting": "time 7 day", "value": 17.2, "unit": "mg/dL"},
      {"measurement": "CRE", "setting": "time 7 day", "value": 0.1, "unit": "mg/dL"},
      {"measurement": "Ca", "setting": "time 7 day", "value": 10.8, "unit": "mg/dL"},
      {"measurement": "Cl", "setting": "time 7 day", "value": 107.6, "unit": "meq/L"},
      {"measurement": "DBIL", "setting": "time 7 day", "value": 0, "unit": "mg/dL"},
      {"measurement": "GLC", "setting": "time 7 day", "value": 189.6, "unit": "mg/dL"},
      {"measurement": "IP", "setting": "time 7 day", "value": 7, "unit": "mg/dL"},
      {"measurement": "LDH", "setting": "time 7 day", "value": 203, "unit": "IU/L"},
      {"measurement": "Na", "setting": "time 7 day", "value": 143.6, "unit": "meq/L"},
      {"measurement": "PL", "setting": "time 7 day", "value": 119.6, "unit": "mg/dL"},
      {"measurement": "RALB", "setting": "time 7 day", "value": 2.9, "unit": "g/dL"},
      {"measurement": "TBIL", "setting": "time 7 day", "value": 0, "unit": "mg/dL"},
      {"measurement": "TC", "setting": "time 7 day", "value": 62.4, "unit": "mg/dL"},
      {"measurement": "TG", "setting": "time 7 day", "value": 73.8, "unit": "mg/dL"},
      {"measurement": "TP", "setting": "time 7 day", "value": 5.8, "unit": "g/dL"},
      {"measurement": "gamma-GTP", "setting": "time 7 day", "value": 1, "unit": "IU/L"},
      {"measurement": "ALP", "setting": "time 14 day", "value": 1375.6, "unit": "IU/L"},
      {"measurement": "AST", "setting": "time 14 day", "value": 67.8, "unit": "IU/L"},
      {"measurement": "BUN", "setting": "time 14 day", "value": 16.8, "unit": "mg/dL"},
      {"measurement": "CRE", "setting": "time 14 day", "value": 0.1, "unit": "mg/dL"},
      {"measurement": "Ca", "setting": "time 14 day", "value": 10.4, "unit": "mg/dL"},
      {"measurement": "Cl", "setting": "time 14 day", "value": 106, "unit": "meq/L"},
      {"measurement": "DBIL", "setting": "time 14 day", "value": 0, "unit": "mg/dL"},
      {"measurement": "GLC", "setting": "time 14 day", "value": 177.8, "unit": "mg/dL"},
      {"measurement": "IP", "setting": "time 14 day", "value": 6.3, "unit": "mg/dL"},
      {"measurement": "LDH", "setting": "time 14 day", "value": 194.4, "unit": "IU/L"},
      {"measurement": "Na", "setting": "time 14 day", "value": 143.8, "unit": "meq/L"},
      {"measurement": "PL", "setting": "time 14 day", "value": 138.2, "unit": "mg/dL"},
      {"measurement": "RALB", "setting": "time 14 day", "value": 3.1, "unit": "g/dL"},
      {"measurement": "TBIL", "setting": "time 14 day", "value": 0.004, "unit": "mg/dL"},
      {"measurement": "TC", "setting": "time 14 day", "value": 70.4, "unit": "mg/dL"},
      {"measurement": "TG", "setting": "time 14 day", "value": 114.8, "unit": "mg/dL"},
      {"measurement": "TP", "setting": "time 14 day", "value": 6, "unit": "g/dL"},
      {"measurement": "gamma-GTP", "setting": "time 14 day", "value": 1.2, "unit": "IU/L"},
      {"measurement": "ALP", "setting": "time 28 day", "value": 1014.6, "unit": "IU/L"},
      {"measurement": "AST", "setting": "time 28 day", "value": 65.8, "unit": "IU/L"},
      {"measurement": "BUN", "setting": "time 28 day", "value": 16.8, "unit": "mg/dL"},
      {"measurement": "CRE", "setting": "time 28 day", "value": 0.2, "unit": "mg/dL"},
      {"measurement": "Ca", "setting": "time 28 day", "value": 10.3, "unit": "mg/dL"},
      {"measurement": "Cl", "setting": "time 28 day", "value": 106.8, "unit": "meq/L"},
      {"measurement": "DBIL", "setting": "time 28 day", "value": 0, "unit": "mg/dL"},
      {"measurement": "GLC", "setting": "time 28 day", "value": 187.6, "unit": "mg/dL"},
      {"measurement": "IP", "setting": "time 28 day", "value": 5.9, "unit": "mg/dL"},
      {"measurement": "LDH", "setting": "time 28 day", "value": 154, "unit": "IU/L"},
      {"measurement": "Na", "setting": "time 28 day", "value": 142.2, "unit": "meq/L"},
      {"measurement": "PL", "setting": "time 28 day", "value": 111.8, "unit": "mg/dL"},
      {"measurement": "RALB", "setting": "time 28 day", "value": 3.2, "unit": "g/dL"},
      {"measurement": "TBIL", "setting": "time 28 day", "value": 0.016, "unit": "mg/dL"},
      {"measurement": "TC", "setting": "time 28 day", "value": 57, "unit": "mg/dL"},
      {"measurement": "TG", "setting": "time 28 day", "value": 56.4, "unit": "mg/dL"},
      {"measurement": "TP", "setting": "time 28 day", "value": 6.1, "unit": "g/dL"},
      {"measurement": "gamma-GTP", "setting": "time 28 day", "value": 1.6, "unit": "IU/L"}
    ]}
  ]
}
